Data set [1] is described as follows: Cytotoxicity against human foreskin fibroblasts after 5 days by colorimetric assay. It counts as cell-based. The following applies: human foreskin fibroblasts (HFF cells), read-out: TD50.
Data set [2] has as its system Toxoplasma gondii. Kind of data set: Antiparasitic activity against Toxoplasma gondii infected in human foreskin fibroblasts assessed as inhibition of replication measured as decrease in the number of tachyzoites in vacuole at 10 uM after 24 hrs by fluorescence assay. The data set is classed as functional, organism-based.
For data set [3], the system named is Toxoplasma gondii. Kind of data set: Antiparasitic activity against Toxoplasma gondii infected in human foreskin fibroblasts assessed as inhibition of tachyzoite replication compound pretreated at 10 uM for 24 hrs before infection by fluorescence assay. The data set is classed as functional, organism-based.
Data set [4] deals with Toxoplasma gondii. Kind of data set: Antiparasitic activity against Toxoplasma gondii infected in human foreskin fibroblasts assessed as tachyzoite growth inhibition after 5 days by colorimetric assay. The data set is classed as functional, organism-based. The following applies: 120 h.
Data set [5] in a line: Therapeutic index, ratio of TD50 for human foreskin fibroblasts to IC50 for Toxoplasma gondii infected in human foreskin fibroblasts. The following applies: read-out: TI.
In data set [6] the test system is Toxoplasma gondii. Nature of the data set: Antiparasitic activity against Toxoplasma gondii infected in human foreskin fibroblasts assessed as inhibition of attachment compound pretreated at 10 uM for 20 mins before infection after 1 hr by fluorescence assay. The data set is classed as functional, organism-based.
Data set [7] has as its system Toxoplasma gondii. Nature of the data set: Antiparasitic activity against Toxoplasma gondii infected in human foreskin fibroblasts assessed as inhibition of invasion compound pretreated at 10 uM for 20 mins before infection after 1 hr by fluorescence assay. The data set is classed as functional, organism-based.
Data set [8] concerns Toxoplasma gondii. Nature of the data set: Antiparasitic activity against Toxoplasma gondii infected in human foreskin fibroblasts assessed as inhibition of replication measured as recovery at 10 uM for 24 hrs followed by washout measured after 96 hrs by fluorescence assay. It counts as functional, organism-based.

This is an account of results in ChEMBL document CHEMBL3352341, “Design, synthesis and biological characterization of thiazolidin-4-one derivatives as promising inhibitors of Toxoplasma gondii” (Eur J Med Chem, 2014).

Calls of active or inactive are those of the source. Unless noted, the rule behind the calls is not given here. Bounds are passed on as bounds.

As a reminder, the IC50 is the point on the concentration scale where inhibition reaches its midpoint. Broadly, the IC90 is the concentration needed for an effect of 90%.

As to `CC(C)=N/N=C1\NC(=O)CS1`, in data set [1], the CC50 at 120 h was no less than 320 µM. Further, in the data set with Toxoplasma gondii [2], the inhibition entry was “Active”. In the data set with Toxoplasma gondii [3], the inhibition result was “inactive”. In the data set on Toxoplasma gondii [4], the IC50 was 210 µM and the IC90 came to 852 µM. In addition, the selectivity ratio in data set [5] came out at 3.
For the molecule `O=C1CS/C(=N/N=C\c2cccc3ccccc23)N1`, in data set [1], the CC50 at 120 h is no less than 320 µM. The inhibition result with Toxoplasma gondii [2], in the data set on Toxoplasma gondii [6] and in the data set with Toxoplasma gondii [7] was “Active” in each case. The IC50 in the data set with Toxoplasma gondii [4] was found to be 3.9 µM. The IC90 with Toxoplasma gondii [4] is 31 µM. Moreover, the selectivity ratio in data set [5] worked out at 144. Also, the inhibition entry in the data set with Toxoplasma gondii [8] is “inactive”.
For the molecule `CC1CC/C(=N/N=C2\NC(=O)CS2)C1` (configuration not stated), the CC50 at 120 h in data set [1] was no less than 320 µM. For the same molecule, the inhibition entry with Toxoplasma gondii [2], in the data set on Toxoplasma gondii [6] and in the data set with Toxoplasma gondii [7] was “Active” in each case. In addition, in the data set with Toxoplasma gondii [4], the IC50 turned out to be 24 µM. Besides, in the data set on Toxoplasma gondii [4], the IC90 came to 154 µM. Also, the selectivity ratio in data set [5] worked out at 23.
In the case of `CCCCCC/C(C)=N\N=C1/NC(=O)CS1`, the CC50 at 120 h in data set [1] is no less than 320 µM. The inhibition entry in the data set with Toxoplasma gondii [2], in the data set with Toxoplasma gondii [6] and in the data set on Toxoplasma gondii [7] was “Active” throughout. For the same molecule, the IC50 in the data set on Toxoplasma gondii [4] amounted to 31 µM. For the same molecule, in the data set with Toxoplasma gondii [4], the IC90 was 188 µM. In addition, the selectivity ratio in data set [5] is 18.
Take `O=C1CSC(NN=C2CCCCC2)=N1`: the CC50 at 120 h in data set [1] is no less than 320 µM. The inhibition entry with Toxoplasma gondii [2], with Toxoplasma gondii [6] and in the data set with Toxoplasma gondii [7] was “Active” in each case. For the same molecule, in the data set on Toxoplasma gondii [4], the IC50 amounted to 28 µM. In addition, the IC90 with Toxoplasma gondii [4] was 278 µM. Further, the selectivity ratio in data set [5] turned out to be 20.
Take `O=C1CS/C(=N/N=C\c2ccncc2)N1`: the CC50 at 120 h in data set [1] is no less than 320 µM. Besides, the inhibition result with Toxoplasma gondii [2], with Toxoplasma gondii [6] and with Toxoplasma gondii [7] was “Active” in each case. Besides, the IC50 in the data set with Toxoplasma gondii [4] was determined as 20 µM. Moreover, the IC90 with Toxoplasma gondii [4] stood at 129 µM. In data set [5], the selectivity ratio worked out at 28.
